According to patent publication US9126999B2, “Tetrahydropyrazolopyrimidine compounds” (EISAI R&D MANAGEMENT CO., LTD., priority 2012, dated 2015):
Entries after “also recorded” stand apart in the source; their conditions may differ.

Assays:
[1] = test system: mouse lupus disease models; assay: SLE disease models, summary of findings; assay type: in vivo; conditions: summary over lupus models
Experimental: Male BXSB-Yaa and female NZBWF1/J mice were purchased from Jackson Labs (Bar Harbor, Me.), both of which manifest with spontaneous lupus disease. Female DBA/1 mice were purchased from Harlan Laboratories (Indianapolis, Ind.) and at the indicated ages given an intraperitoneal injection of 0.5 ml pristane (2,6,10,14-Tetramethylpentadecane; Sigma, St. Louis, Mo.) to chemically induce lupus disease or of 0.5 ml PBS to generate age-matched, non-diseased control mice. Mice were dosed daily by oral administration of compound or drug in 0.5% methylcellulose, for the time period indicated.

NZBWF1/J mice = assay: NZBxNZW strain lupus disease model; assay type: in vivo, mouse; conditions: NZB/W model; for anti-dsDNA titers: QD PO; for proteinuria: UACR
Experimental: Figure Legend: Female NZBWF1/J mice were received at 6 weeks of age, baseline bleeds were performed, and mice were monitored for disease progression by following anti-dsDNA titers. At 20 weeks of age, mice were randomized into groups with equivalent median anti-dsDNA titers and treated at 23 weeks of age with Vehicle (Veh; 0.5% methyl-cellulose) alone or 33, 100, or 300 mg/kg ER-892887 once-a-day orally (QD PO). All mice were sacrificed at 45 weeks of age (22 weeks total treatment) and blood plasma anti-dsDNA titers were determined by ELISA. (A) Impact of ER-892887 treatment over time on anti-dsDNA titers. (B) Bar graph of +22 weeks treatment data for ER-892887 derived from data shown in (A). (C) Just prior to termination at 45 weeks of age (following 22 weeks of treatment), urine was collected from individual mice, and the Urinary Albumin Creatinine Ratio (UACR, proteinuria) was determined for each animal as an indirect measure of kidney function. (D) Summary of mortality observed in this study. (E) At the time of sacrifice, kidneys were collected from individual mice, fixed in 10% formalin for 24 hours, embedded in paraffin, and H&E stained sections were generated for histopathology assessment in a blinded fashion. Statistical significance was determined by Mann-Whitney test for (C).
Figure Legend. Female NZBWF1/J mice were received at 8 weeks of age, baseline bleeds were performed, and mice were monitored for disease progression by following anti-dsDNA titers. At 24 weeks of age, mice were randomized into groups with equivalent median anti-dsDNA titers and treated at 25 weeks of age QD PO with Vehicle (Veh; 0.5% methyl-cellulose) alone or 33, 100, or 300 mg/kg ER-892887. Anti-dsDNA titers were determined by ELISA on blood plasma samples at the time points indicated. (A) Impact of compound treatment on median anti-dsDNA titers over time up to +17 weeks of treatment. (B) Impact of compound treatment on median anti-dsDNA at the +13 weeks of treatment time point only from data shown in (A). (C) After 13 weeks (top graph) or 17 weeks (bottom graph) of compound treatment, urine was collected from individual mice, and the Urinary Albumin Creatinine Ratio (UACR, proteinuria) was determined for each animal as an indirect measure of kidney function. Mice indicated within the circle with high UACR were those animals that died between the +13 wks and +17 wks of treatment (statistical significance was determined by Mann-Whitney test). (D) Blood urea nitrogen (BUN) measured in the plasma from select groups after 13 weeks of treatment. (E) Mortality curves for Vehicle versus compound treated mice up to 17 weeks of treatment. […] (F) Summary of mortality observed in this study.
Figure Legend: Female NZBWF1/J mice were received at 6 weeks of age, baseline bleeds were performed, and mice were monitored for disease progression by following anti-dsDNA titers. At 24 weeks of age, mice were randomized into groups with equivalent median anti-dsDNA titers and treated with Vehicle (Veh; 0.5% methyl-cellulose) alone or 300 mg/kg ER-885454 once-a-day orally (QD PO). All mice were sacrificed at 47 weeks of age (23 weeks total treatment) and blood plasma anti-dsDNA titers were determined by ELISA (A). (B) Just prior to termination at 47 weeks of age, urine was collected from individual mice, and Urinary Albumin Creatinine Ratio (UACR, proteinuria) was determined for each animal as an indirect measure of kidney function. (C) At the time of sacrifice, kidneys were collected from individual mice, fixed in 10% formalin for 24 hours, embedded in paraffin, and H&E stained sections were generated for histopathology assessment in a blinded fashion. Statistical significance was determined by Mann-Whitney test for (A) above.
Figure Legend: Female NZBWF1/J mice were received at 4 weeks of age, baseline bleeds were performed at 10 and 26 weeks, and mice were monitored for disease progression by following anti-dsDNA titers and proteinuria. […]

COc1ccc([C@@H]2C[C@H](C(F)(F)F)n3nc(-c4ccncc4)cc3N2)cc1OC [ER-885454]
kidney disease as manifested by proteinuria and histologic changes [1]: suppressed | production of several autoantibody specificities [1]: limited | histological signs of glomerulonephritis (NZBWF1/J mice): reduced | anti-dsDNA titers (NZBWF1/J mice): reduced | proteinuria (NZBWF1/J mice): reduced

COc1ccc([C@@H]2C[C@H](C(F)(F)F)n3nc(-c4ccc(C(=O)N5CCNCC5)cc4)cc3N2)cc1OC [ER-892887, (4-((5S,7R)-5-(3,4-dimethoxyphenyl)-7-(trifluoromethyl)-4,5,6,7-tetrahydropyrazolo[1,5-a]pyrimidin-2-yl)phenyl)(piperazin-1-yl)methanone]
kidney disease as manifested by proteinuria and histologic changes [1]: suppressed | production of several autoantibody specificities [1]: limited | delay of development of proteinuria compared with two drugs commonly used in the treatment of human lupus (NZBWF1/J mice): more effectively | efficacy in combination with hydroxychloroquine and prednisolone (NZBWF1/J mice): efficacious | histological signs of glomerulonephritis (NZBWF1/J mice): reduced | anti-dsDNA titers (NZBWF1/J mice): reduced | proteinuria (NZBWF1/J mice): reduced proteinuria | survival (NZBWF1/J mice; vs. Vehicle, 33-100 mg/kg QD PO, long-term dosing): statistically significant survival benefit; also recorded: afforded survival benefit; also recorded: significantly enhanced survival
